{
  "source": "patent US4409238A",
  "about": "“Insecticides and insecticidal compositions” (Kuraray Co., Ltd., priority 1977, dated 1983)",
  "key": {"[1]": {"test_system": "houseflies", "experiment": "Settling mist mortality test against houseflies, oil preparations of Formulation Example 2 (Utility Example 3)", "type": "in vivo, houseflies (Musca domestica)", "settings": "oil preparation with 0.1 part compound and 0.1 part resmethrin per 100 parts, 24 hours", "experimental": "To 0.1 part of each of Compounds [1] to [17] was added 0.1 part of resmethrin, followed by the addition of a sufficient amount of kerosene to make 100 parts. The mixture was stirred to obtain an oil preparation of each compound.\n(§1) By the settling mist method, a mortality test against houseflies was carried out using the oil preparations made in Formulation Example 2 from Compounds [1], [2], [5] to [11] and [17]. After 24 hours, the flies were examined for deaths. The mortality (%) was not less than 90% for each of Compounds [1], [2], [5] to [11] and [17]."}, "[2]": {"experiment": "Light stability test (Test Example 4)", "type": "physicochemical", "settings": "direct sunlight between glass plates, 12° C., relative to aluminum foil-covered control; for remaining at 4 h: read-out: Residue (%) Exposure time 4 hrs.; for remaining at 8 h: read-out: Residue (%) Exposure time 8 hrs.", "experimental": "Into 2.0 ml of acetone were dissolved 80 mg of each test compound. A 5 μl portion of the solution was taken and spread on a glass plate (Micro Standard Cover Glass, 18 m/m No. 1, 200 pcs, Matsunami Glass Ind., Ltd.) and the acetone was evaporated. Then, a similar glass plate was superimposed on the above plate in such a manner that the test liquid was sandwitched. The specimen was exposed to direct sunlight at an atmospheric temperature of 12° C. for a predetermined exposure time. As an unexposed control, a similar specimen was covered with an aluminum foil. The test liquid was washed away with 1.0 ml of methanol containing 0.04% of dioctyl phthalate as an internal reference and high-speed liquid chromatography was carried out on the washings to determine the residual amount of the test compound. The residue (%) was calculated with the value for the aluminum foil-covered control specimen as the standard."}, "[3]": {"test_system": "green rice leafhoppers (Nephotettix cincticeps)", "experiment": "Mortality test against green rice leafhoppers by topical application method (Test Example 2)", "type": "in vivo", "settings": "0.1% solution in acetone, female adults, 24 hours, 25° C.", "experimental": "Each test compound was accurately weighed and an 0.1% solution in acetone was prepared. Female adults of green rice leafhopper (Nephotettix cincticeps) were anaesthetized with carbon dioxide gas and 0.5 µl of the above solution was micropipetted onto the thoracic abdominal part of each leafhopper. Then, the test leafhoppers were kept at 25° C. with access to rice plant seedlings. Each group comprised 15 green rice leafhoppers. After 24 hours, the leafhoppers were inspected for deaths and the mortality (%) was calculated for each compound."}, "[4]": {"test_system": "houseflies (Musca domestica)", "experiment": "Settling mist mortality test against houseflies, oil preparations of Formulation Example 1 (Utility Example 2)", "type": "in vivo", "settings": "oil preparation with 0.2 part compound and 0.8 part piperonyl butoxide per 100 parts, 24 hours", "experimental": "0.2 part of each of Compounds [1], [2], [5] to [13] and [17] was prepared and 0.8 part of piperonyl butoxide was added to each of them. To this mixture was added a sufficient amount of kerosene to make 100 parts, followed by stirring. By this procedure there was obtained an oil preparation of each Compound.\nas §1, with “houseflies (Musca domestica)” for “houseflies”, “preparations obtained according to” for “preparations made in”, “Example 1” for “Example 2”, “[11] […]” for “[11] and”"}, "[5]": {"test_system": "houseflies (Musca domestica)", "experiment": "Mortality test against houseflies by topical application method (Test Example 1)", "type": "in vivo", "settings": "female adult houseflies, 24 hours, 25° C.", "experimental": "Each test compound was accurately weighed and a 1% solution and a 0.1% solution of the sample in acetone were prepared. A 1 μl portion of either of the above solutions was micropipetted onto the thoracic dorsal part of each female adult housefly (Musca domestica) under ether anaesthesia and the fly was released in a high-walled dish together with feed. The dish was covered with a metal-wire net and maintained at 25° C. After 24 hours, the test flies were inspected for deaths and the mortality (%) was calculated. Thirty test flies were used per concentration group."}, "[6]": {"test_system": "house-flies", "experiment": "Settling mist mortality test against houseflies, oil preparations of Formulation Example 3 (Utility Example 4)", "type": "in vivo, houseflies (Musca domestica)", "settings": "oil preparation with 0.1 part compound and 0.08 part permethrin per 100 parts, 24 hours", "experimental": "To 0.1 part of each of Compounds [1] to [28] was added 0.08 part of permethrin, followed by the addition of a sufficient amount of kerosene to make 100 parts. The mixture was stirred to obtain an oil preparation of each compound.\nas §1, with “against house-flies” for “against houseflies”, “preparations obtained” for “preparations made”, “Example 3” for “Example 2”"}, "[7]": {"test_system": "green rice leafhoppers", "experiment": "Spray test on rice seedlings against green rice leafhoppers (Utility Example 1)", "type": "in vivo, green rice leafhoppers (Nephotettix cincticeps)", "settings": "30% emulsifiable concentrate (Formulation Example 5) diluted 300-fold, 10 ml/pot, 24 hours", "experimental": "To 30 parts of each of Compounds [1], [2], [5] to [13] and [17] to [19] was added 50 parts of xylene and 20 parts of Sorpol SM-200 (a surfactant, trademark of Toho Chemical Co., Ltd.). The mixture was stirred well and dissolved to obtain a 30% emulsifiable concentrate.\nThe emulsifiable concentrate prepared from Compounds [1], [2], [6], [7], [9], [10], [12] and [13] in Formulation Example 5 were each diluted 300-fold with water. Then, each of the dilutions was sprayed over rice seedlings 25 days after sowing at the rate of 10 ml/pot. The pot was covered with a wire-net and 15 green rice leafhoppers were released under the net. After 24 hours, the leafhoppers were examined for deaths. The mortality (%) was not less than 90% for each of Compounds [1], [2], [6], [7], [9], [10], [12] and [13]."}, "[8]": {"test_system": "cockroaches (Blattella germanica)", "experiment": "Mortality test against cockroaches by topical application method (Test Example 3)", "type": "in vivo", "settings": "1 μl of 1% solution in acetone, female cockroaches, 24 hours, 25° C.", "experimental": "Each test compound was accurately weighed and made in a 1% solution in acetone. Then, 1 μl of the above solution was micropipetted onto the abdominal part of each female cockroach (Blattella germanica) under ether anaesthesia. The roaches were released in a high-walled dish together with feed and, after the disk was covered with a metal wire net, same was maintained at 25° C. Fifteen roaches per group were employed. After 24 hours, the test roaches were inspected for deaths and the mortality (%) for each group was calculated."}, "[9]": {"experiment": "Hydrolysis resistance test (Test Example 5)", "type": "physicochemical", "settings": "acetone/water, reflux for 2 days; read-out: Residue (%)", "experimental": "Into about 8 ml of acetone were dissolved 100 mg of each test compound and, then, 1.0 g of water was added to this solution to prepare a mixed solution. This mixed solution was refluxed for 2 days. After concentration to about one half of the original volume and with the addition of dioctyl phthalate as an internal reference, the residual amount of the compound was determined by high-speed liquid chromatography. The residue (%) was then calculated."}, "[10]": {"test_system": "guppies", "experiment": "Fish toxicity test (Test Example 6)", "type": "in vivo", "settings": "female guppies, 48 hours, 25° C.; concentration at which 90% or more were killed", "experimental": "To 5 l of water were added 250 mg of sorpol SM-200 (registered trademark, Toho Chemical Co., Ltd.) or Tween-20 (commercial product) as an emulsifier (surfactant) as well as 2.5 ml of an acetone solution containing one of the test compounds in a predetermined concentration. The mixture was stirred well to prepare a test water. Ten female guppies from 3 to 4 months of age were released into the test water and maintained at 25° C. The concentration of the test compound at which 90% or more of the guppies were killed during the ensuring 48 hours was determined. (This concentration is referred to as LC90)."}},
  "data": [
    {"smiles": "CC(C)C(C=C(Cl)Cl)C(=O)OC(C#N)c1cccc(Oc2ccccc2)c1", "note": "(stereo not drawn) [Compound [1], α-Cyano-3-phenoxybenzyl α-(2,2-dichlorovinyl)isovalerate]", "values": [
      {"measurement": "Mortality (%)", "setting": "[1]", "result": "not less than 90%"},
      {"measurement": "remaining at 4 h", "setting": "[2]", "result": 93, "unit": "%"},
      {"measurement": "remaining at 8 h", "setting": "[2]", "result": 90, "unit": "%"},
      {"measurement": "mortality at 0.1 %", "setting": "[3]", "result": "≥ 90", "unit": "%"},
      {"measurement": "Mortality (%)", "setting": "[4]", "result": "not less than 90%"},
      {"measurement": "Mortality (%) 1 μg/fly", "setting": "[5]", "result": 100, "unit": "%"},
      {"measurement": "Mortality (%) 10 μg/fly", "setting": "[5]", "result": 100, "unit": "%"},
      {"measurement": "Mortality (%)", "setting": "[6]", "result": "not less than 90%"},
      {"measurement": "Mortality (%)", "setting": "[7]", "result": "not less than 90%"},
      {"measurement": "mortality at 1 %, 0.01 mg", "setting": "[8]", "result": 100, "unit": "%"}
    ]},
    {"smiles": "C#CC(OC(=O)C(C=C(Cl)Cl)C(C)C)c1cccc(Oc2ccccc2)c1", "note": "(stereo not drawn) [[2], α-Ethynyl-3-phenoxybenzyl α-(2,2-dichlorovinyl)isovalerate]", "values": [
      {"measurement": "remaining at 48 h", "setting": "[9]", "result": "> 90", "unit": "%"},
      {"measurement": "Mortality (%)", "setting": "[1]", "result": "not less than 90%"},
      {"measurement": "remaining at 4 h", "setting": "[2]", "result": 97, "unit": "%"},
      {"measurement": "remaining at 8 h", "setting": "[2]", "result": 100, "unit": "%"},
      {"measurement": "LC90", "setting": "[10]", "result": "Not less than 10 ppm"},
      {"measurement": "Mortality (%)", "setting": "[4]", "result": "not less than 90%"},
      {"measurement": "Mortality (%) 1 μg/fly", "setting": "[5]", "result": 100, "unit": "%"},
      {"measurement": "Mortality (%) 10 μg/fly", "setting": "[5]", "result": 100, "unit": "%"},
      {"measurement": "Mortality (%)", "setting": "[6]", "result": "not less than 90%"},
      {"measurement": "Mortality (%)", "setting": "[7]", "result": "not less than 90%"},
      {"measurement": "mortality at 1 %, 0.01 mg", "setting": "[8]", "result": 80, "unit": "%"}
    ]}
  ]
}
